Measured values reported in US9884863B2, “STAT3 inhibitor” (Board of Regents, The University of Texas System, priority 2013, dated 2018).

Test system: STAT3 promoter activity in MDA-MB-231 cells
Assay: Transient transfection and dual luciferase reporter assay (pSTAT3-Luc)
Assay type: cell-based, human
Conditions: 24 h
Procedure: MDA-MB-231 cells were pre-treated with niclosamide or 11 at different concentrations for 24 h. The STAT3 promoter activity in MDA-MB-231 cells was determined after transient transfecting with pSTAT3-Luc vector.
Transient Transfection and Dual Luciferase Reporter Assays. MBA-MB-231 cells were seeded in 24-well plate at a density of 5×10^4 cells/well in RPMI-1640 medium containing 10% FBS and 1% penicillin-streptomycin. Transient transfections were performed 4 h after plating, using the method described previously (Rees, D. C. et al., 2004; Shen, Q. et al., 2008). Total amount of DNA for transfections was 0.5 μg/well, including pSTAT3-Luc (95%, obtained from Panomics, Cat# LR0077) and internal control vector renilla (5%, from Promega, Madison, Wis., USA). 5 h after transfection, the cells were treated with compound […] for 24 h, then reporter activity was evaluated using dual luciferase reporter assay kit (Promega, Madison, Wis., USA) on an Omega™ Microplate Luminometer (BMG LABTECH Inc., NC, USA). Relative luciferase units were the ratio of the absolute activity of firefly luciferase to that of renilla luciferase. Experiments were conducted with triplicates and results are representatives of at least 3 independent experiments.

Structure (SMILES): O=C(Nc1ccc([N+](=O)[O-])cc1Cl)c1cc(Cl)ccc1O [niclosamide, reference compound]
- STAT3 promoter activity at 20 μM, in words: suppressed
